Assay [1] deals with Plasmodium falciparum. In words: Antiplasmodial activity against chloroquine-resistant Plasmodium falciparum W2 assessed as inhibition of parasite LDH activity […] after 72 hrs by malstat reagent method. Conditions: W2, 72 h. The format is functional, organism-based.
The species named for assay [2] is Homo sapiens. In words: Inhibition of human PP2A at 100 uM.
The species entered for assay [3] is Homo sapiens. Put plainly: Inhibition of human PP1 at 100 uM.
Assay [4] relates to Plasmodium falciparum. In words: Antiplasmodial activity against chloroquine-sensitive Plasmodium falciparum D6 assessed as inhibition of parasite LDH activity after 72 hrs by malstat reagent method. The format is functional, organism-based. Conditions: D6, 72 h.
Assay [5] is described as follows: Inhibition of human PP2A.
A short description of assay [6]: Inhibition of human PP1.

Our source for the IC50 and inhibition values is ChEMBL document CHEMBL1268944, “The antiplasmodial activity of norcantharidin analogs” (Bioorg Med Chem Lett, 2010).

`Cc1cccc(NC(=O)C2C(C(=O)O)[C@@H]3CC[C@H]2O3)c1C` (some centres not stated): the IC50 (in general, the concentration needed to halve the response being measured) in assay [1] turned out to be 220 µM; in assay [4] it was 260 µM. Besides, the inhibition (usually the percentage by which the read-out fell short of the control) in assay [2] was determined as 62%; in assay [3] it was 84%.
Consider `CCCCNC(=O)C1C(C(=O)O)[C@@H]2CC[C@H]1O2` (some centres not stated), for which the IC50 in assay [1] was above 500 µM; in assay [4] it was above 500 µM; in assay [5] it was 24 µM; in assay [6], 70 µM.
As to `O=C(O)CCCCCNC(=O)C1C(C(=O)O)[C@@H]2CC[C@H]1O2` (some centres not stated), the half-inhibitory concentration (IC50) in assay [1] is above 500 µM; in assay [4], 260 µM; in assay [5], 3.5 µM; in assay [6], 14 µM.
On to `CC(C)(C)c1ccc(NC(=O)C2C(C(=O)O)[C@@H]3CC[C@H]2O3)cc1` (some centres not stated), for which the IC50 was above 500 µM in assay [1], 405 µM in assay [4], 11 µM in assay [5] and 10 µM in assay [6].
For the compound `O=C(O)C1C(C(=O)Nc2ccccc2)[C@H]2CC[C@@H]1O2` (some centres not stated), the 50% inhibitory concentration (IC50) in assay [1] came to 363 µM; in assay [4], 300 µM; in assay [5], 7.7 µM; in assay [6], 24 µM.
In the case of `O=C1C2C(C(=O)N1CCN1CCOCC1)[C@H]1CC[C@@H]2O1` (some centres not stated), the IC50 in assay [1] and in assay [4] was above 500 µM each time.
For `CCN1C(=O)C2C(C1=O)[C@H]1CC[C@@H]2O1` (some centres not stated), the IC50 in assay [1] and in assay [4] was above 500 µM each time.
Regarding `CC(C)(C)c1cc(NC(=O)C2C(C(=O)O)[C@@H]3CC[C@H]2O3)cc(C(C)(C)C)c1` (some centres not stated), the IC50 stood at 176 µM in assay [1], 59.3 µM in assay [4], 8.2 µM in assay [5] and 8.2 µM in assay [6].
As to `O=C(O)C1C(C(=O)Nc2cccc(I)c2)[C@H]2CC[C@@H]1O2` (some centres not stated), the IC50 in assay [1] was 283 µM; in assay [4] it was 217 µM; in assay [5], 18 µM; in assay [6], 44 µM.
For `O=C(O)C1C(C(=O)NCCCc2ccccc2)[C@H]2CC[C@@H]1O2` (some centres not stated), the IC50 was 230 µM in assay [1], 383 µM in assay [4], 25 µM in assay [5] and 25 µM in assay [6].
Consider `O=C(O)C1C(C(=O)Nc2ccc(O)cc2)[C@H]2CC[C@@H]1O2` (some centres not stated), for which the IC50 in assay [1] was determined as 333 µM; in assay [4], 265 µM; in assay [5], 7.7 µM; in assay [6], 28 µM.
`O=C(O)C1C(C(=O)Nc2ccc(I)cc2)[C@H]2CC[C@@H]1O2` (some centres not stated): the IC50 was 248 µM in assay [1], 230 µM in assay [4], 14 µM in assay [5] and 33 µM in assay [6].
For the compound `O=C(O)C1C(C(=O)N2CCSCC2)[C@H]2CC[C@@H]1O2` (some centres not stated), the IC50 turned out to be 204 µM in assay [1], 250 µM in assay [4], 5.1 µM in assay [5] and 3.2 µM in assay [6].
In the same order, the values of `O=C(O)C1C(C(=O)NCCc2ccccc2)[C@H]2CC[C@@H]1O2` (some centres not stated) are 300 µM, 243 µM, 29 µM and 33 µM.
In the case of `CSc1ccc(NC(=O)C2C(C(=O)O)[C@@H]3CC[C@H]2O3)cc1` (some centres not stated), the IC50 in assay [1] was above 500 µM; in assay [4], above 500 µM; in assay [5] it was 14 µM; in assay [6] it was 10 µM.
Consider `CCC(C)N1C(=O)C2C(C1=O)[C@H]1CC[C@@H]2O1` (some centres not stated), for which the IC50 in assay [1] amounted to 125 µM; in assay [4], 225 µM.
Turning to `CCCCCCOc1ccc(NC(=O)C2C(C(=O)O)[C@@H]3CC[C@H]2O3)cc1` (some centres not stated), the IC50 amounted to 70 µM in assay [1], 130 µM in assay [4], 20 µM in assay [5] and 60 µM in assay [6].
On to `O=C(O)C1C(C(=O)NCc2ccc(C(F)(F)F)cc2)[C@H]2CC[C@@H]1O2` (some centres not stated), for which the IC50 in assay [1] is 433 µM; in assay [4], 248 µM; in assay [5] it was 20 µM; in assay [6], 16 µM.
Consider `CC(CO)N1C(=O)C2C(C1=O)[C@H]1CC[C@@H]2O1` (some centres not stated), for which the IC50 in assay [1] and in assay [4] was above 500 µM in each case.
On to `COc1ccc(CNC(=O)C2C(C(=O)O)[C@@H]3CC[C@H]2O3)cc1` (some centres not stated), for which the IC50 in assay [1] was above 500 µM; in assay [4], above 500 µM; in assay [5], 13 µM; in assay [6], 35 µM.
Consider `O=C(O)C1C(C(=O)NCCc2cnc[nH]2)[C@H]2CC[C@@H]1O2` (some centres not stated), for which the IC50 was found to be 267 µM in assay [1] and 307 µM in assay [4]. Also, the inhibition in assay [2] came out at 26%; in assay [3] it was 35%.
Turning to `O=C(O)C1C(C(=O)NCCN2CCOCC2)[C@H]2CC[C@@H]1O2` (some centres not stated), the IC50 was above 500 µM in assay [1], above 500 µM in assay [4], 43 µM in assay [5] and 30 µM in assay [6].
Take `CCCCCCNC(=O)C1C(C(=O)O)[C@@H]2CC[C@H]1O2` (some centres not stated): the IC50 in assay [1] is 390 µM; in assay [4], above 500 µM; in assay [5], 13 µM; in assay [6], 35 µM.
In the case of `Nc1ccccc1CN1C(=O)C2C(C1=O)[C@H]1CC[C@@H]2O1` (some centres not stated), the IC50 in assay [1] and in assay [4] was above 500 µM each time.
As for `O=C(O)C1C(C(=O)Nc2cccc(CO)c2)[C@H]2CC[C@@H]1O2` (some centres not stated), the concentration for half-maximal inhibition (IC50) in assay [1] amounted to 390 µM; in assay [4], 440 µM; in assay [5] it was 7 µM; in assay [6], 15 µM.
In the case of `O=C1C2C(C(=O)N1C1CCCCC1)[C@H]1CC[C@@H]2O1` (some centres not stated), the IC50 is 55 µM in assay [1] and 140 µM in assay [4].
For the compound `O=C(O)C1C(C(=O)Nc2cccc(Cl)c2)[C@H]2CC[C@@H]1O2` (some centres not stated), the half-inhibitory concentration (IC50) in assay [1] is 185 µM; in assay [4], 250 µM; in assay [5] it was 14 µM; in assay [6], 31 µM.
`CCc1ccccc1NC(=O)C1C(C(=O)O)[C@@H]2CC[C@H]1O2` (some centres not stated): the IC50 in assay [1] worked out at 400 µM; in assay [4] it was 360 µM; in assay [5], 24 µM; in assay [6], 51 µM.
As for `O=C(O)C1C(C(=O)Nc2ccc([N+](=O)[O-])cc2)[C@H]2CC[C@@H]1O2` (some centres not stated), the IC50 was 393 µM in assay [1], above 500 µM in assay [4], 23 µM in assay [5] and 74 µM in assay [6].
Consider `O=C1C2C(C(=O)N1N1CCOCC1)[C@H]1CC[C@@H]2O1` (some centres not stated), for which the IC50 in assay [1] and in assay [4] was above 500 µM in each case.
For the compound `O=C1C2C(C(=O)N1CCCCCCO)[C@H]1CC[C@@H]2O1` (some centres not stated), the IC50 in assay [1] and in assay [4] was above 500 µM throughout.
With `CCCNC(=O)C1C(C(=O)O)[C@@H]2CC[C@H]1O2` (some centres not stated), the IC50 was above 500 µM in assay [1], above 500 µM in assay [4], 18 µM in assay [5] and 46 µM in assay [6].
For the compound `CC(C)C[C@@H](C(=O)O)N1C(=O)C2C(C1=O)[C@H]1CC[C@@H]2O1` (some centres not stated), the IC50 in assay [1] and in assay [4] was above 500 µM throughout.
On to `C=Cc1ccc(NC(=O)C2C(C(=O)O)[C@@H]3CC[C@H]2O3)cc1` (some centres not stated), for which the IC50 is 400 µM in assay [1], above 500 µM in assay [4], 11 µM in assay [5] and 23 µM in assay [6].
Regarding `CC(C)(CO)N1C(=O)C2C(C1=O)[C@H]1CC[C@@H]2O1` (some centres not stated), the IC50 in assay [1] and in assay [4] was above 500 µM throughout.
Take `COc1ccc(NC(=O)C2C(C(=O)O)[C@@H]3CC[C@H]2O3)cc1` (some centres not stated): the IC50 in assay [1] is above 500 µM; in assay [4] it was 500 µM; in assay [5], 16 µM; in assay [6], 16 µM.
As for `CCCCCCCCN1C(=O)C2C(C1=O)[C@H]1CC[C@@H]2O1` (some centres not stated), the IC50 in assay [1] came out at 250 µM; in assay [4] it was 225 µM.
With `CCCCN1C(=O)C2C(C1=O)[C@H]1CC[C@@H]2O1` (some centres not stated), the IC50 in assay [1] worked out at 12.5 µM; in assay [4] it was 8.9 µM.
Consider `COc1ccc(CN2C(=O)C3C(C2=O)[C@H]2CC[C@@H]3O2)cc1` (some centres not stated), for which the IC50 in assay [1] worked out at 25 µM; in assay [4] it was 24 µM.
Consider `NCCCN1C(=O)C2C(C1=O)[C@H]1CC[C@@H]2O1` (some centres not stated), for which the 50% inhibitory concentration (IC50) in assay [1] and in assay [4] was above 500 µM in each case.
For `CCCN1C(=O)C2C(C1=O)[C@H]1CC[C@@H]2O1` (some centres not stated), the IC50 in assay [1] and in assay [4] was above 500 µM throughout.
`O=C(O)C1C(C(=O)Nc2ccc(CO)cc2)[C@H]2CC[C@@H]1O2` (some centres not stated): the half-inhibitory concentration (IC50) came to 163 µM in assay [1], 160 µM in assay [4], 7.2 µM in assay [5] and 15 µM in assay [6].
As for `CCCCCOc1ccc(NC(=O)C2C(C(=O)O)[C@@H]3CC[C@H]2O3)cc1` (some centres not stated), the IC50 in assay [1] is 333 µM; in assay [4] it was 110 µM; in assay [5], 15 µM; in assay [6] it was 11 µM.
Consider `C#Cc1cccc(NC(=O)C2C(C(=O)O)[C@@H]3CC[C@H]2O3)c1` (some centres not stated), for which the IC50 was found to be 194 µM in assay [1], 193 µM in assay [4], 16 µM in assay [5] and 20 µM in assay [6].
As for `O=C(O)C1C(C(=O)NCc2ccc(F)c(F)c2)[C@H]2CC[C@@H]1O2` (some centres not stated), the IC50 is above 500 µM in assay [1], 473 µM in assay [4], 26 µM in assay [5] and 26 µM in assay [6].
As for `O=C(O)C1C(C(=O)Nc2ccc3ccccc3c2)[C@H]2CC[C@@H]1O2` (some centres not stated), the IC50 was found to be 257 µM in assay [1], 280 µM in assay [4], 15 µM in assay [5] and 14 µM in assay [6].
`O=C(O)CCCNC(=O)C1C(C(=O)O)[C@@H]2CC[C@H]1O2` (some centres not stated): the IC50 was above 500 µM in assay [1], above 500 µM in assay [4], 3.3 µM in assay [5] and 15 µM in assay [6].
With `CCCCCCN1C(=O)C2C(C1=O)[C@H]1CC[C@@H]2O1` (some centres not stated), the results for the IC50 in assay [1] and in assay [4] were 90 µM and 175 µM, respectively.
For `CCCCCCCCCCN1C(=O)C2C(C1=O)[C@H]1CC[C@@H]2O1` (some centres not stated) the same measures were 141 µM and 375 µM.
